2 molecules from patent publication US11447477B2, “Indoleamine-2,3-dioxygenase inhibitor, the preparative method and the use thereof” (HINOVA PHARMACEUTICALS INC., priority 2017, dated 2022) can be followed below.

Each structure is given as a SMILES string.

For one data set, the target named is human IDO1 protease (Homo sapiens (Human), UniProt P14902). Briefly: Inhibitory activity against human IDO1 protease (absorbance test method). The format is biochemical. The following applies: IDO1 (His-tag) enzyme, absorbance at 320 nm. The method, then: 1) Experimental Materials and Apparatus: • IDO1 (His-tag) enzyme (BPS Bioscience) • L-tryptophan (Sigma) • Methylene blue (Sigma) • Catalase originated from the liver of cattle (Sigma) • L-ascorbic acid (Sigma) • Glycerol (Sigma) • Potassium dihydrogen phosphate solution (Sigma) • Tween 20 (Sigma) • Automatic sampling platform Liquid handler (Bravo & Echo) • Microplate Reader SpectraMax M5e (Molecular Devices)
human IDO1 protease, sequence (P14902 whole entry): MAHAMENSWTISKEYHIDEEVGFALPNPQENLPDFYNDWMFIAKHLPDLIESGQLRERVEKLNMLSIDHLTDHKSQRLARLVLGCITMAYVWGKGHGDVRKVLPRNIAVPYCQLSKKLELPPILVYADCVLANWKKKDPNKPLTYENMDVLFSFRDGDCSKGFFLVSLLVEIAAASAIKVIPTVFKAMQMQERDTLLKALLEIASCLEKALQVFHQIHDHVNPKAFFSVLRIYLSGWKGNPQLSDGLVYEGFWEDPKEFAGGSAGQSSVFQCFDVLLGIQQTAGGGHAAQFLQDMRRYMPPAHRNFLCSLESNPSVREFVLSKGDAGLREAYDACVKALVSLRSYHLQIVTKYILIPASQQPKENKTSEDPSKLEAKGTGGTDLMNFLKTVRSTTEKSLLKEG
2) Test Method of Compounds: The Compounds are Determined by Absorbance Test Method:
The tested compounds and the reference compounds are dissolved in DMSO to prepare a high concentration of storage solution. The stock solution of reference compound was diluted with DMSO to prepare a 100× solution. In the first column of the working plate, 8 μL above tested compounds and 8 μL 100× reference compound were respectively added as the highest concentration, and then the highest concentrations were subjected to three times dilution to obtain 11 concentrations and prepare 100× solution. 0.5 μL solution was transferred from the above plate to the detection plate. […]. For HPE and ZPE control wells, 0.5 μL 100% DMSO was added.
25 μL 2×IDO1 (His-tag) enzyme solution (containing L-ascorbic acid, methylene blue, and catalase) was added to each well. 25 μL reaction solution without IDO1 (His-tag) enzyme was added into HPE control well. The test plate was centrifugated at 1000 rpm for 1 minute to mix well. Then, the test plate was incubated at room temperature for 30 minutes. 25 μL above 2× substrate (L-tryptophan) solution was added to each well. The test plate was centrifugated at 1000 rpm for 1 minute to mix well. The detection plate was placed on ELISA (SpectraMax M5e), the temperature was set at 25° C., and the absorbance (OD value) was measured at 320 nm every 10 minutes till 60 minutes.
Calculating the increase ratio of absorbance: the slope of the absorbance increase curve from 10 min to 60 min is derived from SpectralMax M5e. The inhibition coefficient of compound was calculated: the inhibition ratio of compound=(the absorbance increase ratio of ZPE control well−the absorbance increase ratio of compound well)/(the absorbance increase ratio of ZPE control well−the absorbance increase ratio of HPE control well)×100. Results was analyzed by Prism 5.0.

For data set [1], the target named is IDO protease in HeLa cells (Homo sapiens (Human), UniProt P14902). Briefly: Inhibition of IDO protease in HeLa cells (IFNγ-induced, Trp/Kyn by RapidFire/MS). The format is cell-based. An excerpt: 1) Experimental Materials and Apparatus • HeLa cells (ATCC, Cat. No. CCL-2) • γ interferon IFNγ (R&D, Cat. No. 285-IF-100) • DMEM High Glucose media (Invitrogen, Cat. No. 11965-084) • Fetal bovine serum FBS (Invitrogen, Cat. No. 10100-147) • Trypsin-EDTA (0.050%)(Invitrogen, Cat. No. 25300-054) • Phosphate buffer solution PBS, pH 7.4 (Invitrogen, Cat. No. 10010023) • Penicillin-Streptomycin (P/S) (Invitrogen, Cat. No. 15070063) • L-tryptophan (Trp) (Sigma, Cat. No. T8941) • L-kynurenine (Kyn) (Sigma, Cat. No. K8625) • N′-diformylkynurenine (NFK) (J&K, Cat. No. F700490) • 3-Nitro-L-tyrosine (J&K, Cat. No. N0905) • Acetonitrile (Sigma, Cat. No. 34851) • Dimethylsulfoxide DMSO (Sigma, Cat. No. D8418) • Inhibitor INCB024360 (Selleckchem, Cat. No. S7910) • Inhibitor INCB024360-analog (MedKoo, Cat. No. 205493) • Inhibitor NLG919 (Selleckchem, Cat. No. S7111) • 96 well transparent flat bottom polystyrene cell culture plate (Corning, Cat #3599) • 96 well V-bottom polypropylene plate (PE, Cat #6008290) • 96 well U-shaped bottom polypropylene plate (PE, Cat. No. 6008390) • Multidrop™ distribution box with small metal tip (Thermo, Cat. No. 24073295) • Multidrop™ distribution box of standard tube with metal tip (Thermo, Cat. No. 24072670) • Automatic filling platform (Agilent) • Multidrop™ Combi automatic liquid separator (Thermo) • Centrifugal machine (Eppendorf) • Cell incubator (Thermo) • Cell counter (Thermo) • RapidFire Mass system (Agilent)
IDO protease in HeLa cells, sequence (P14902 whole entry): as above
2) Experimental Method for Compound Assay
The compound (compounds 4, 8, 9, 78, 91 of the present invention) was dissolved in DMSO to prepare a solution with a concentration of 3 mM, and then 15 μL of the compound solution is added to a 96 well plate, and serially diluted by 3 times dilution to obtain 10 points. 2 μL compound solution or DMSO (for HPE/ZPE) was transferred to a new 96 well plate. HeLa cell suspension was seeded into the cell culture plate with a density of 1×10^4 cells/well. For HPE control well, the cell culture medium for detection was DMEM, including 10% FBS, 1% P/S, and 122 μM Trp; for ZPE control well and the compound wells, the cell culture medium was DMEM, including 10% FBS, 1% P/S, […], and 25 ng/ml IFNγ. 192 μL detection medium prepared as above was added to a 96 well plate. 78 μL DMEM was added to the compound plate and thoroughly mixed, and then 8 μL compound solution diluted with DMEM was transferred to the 96 well plate containing the detection medium. The cell culture plate was taken out, and the cell culture medium was discarded, then 100 μL compound solution mentioned above was transferred to the cell culture plate. The cell culture plate was moved into the cell incubator and kept for 48 hours. When detected, the cell culture plate was taken out, and 50 μL supernatant was transferred to a new 96 well plate, to which was added 200 μL acetonitrile, and the plate was mixed well. The plate was centrifugated at 4° C. for 20 minutes (rotatory speed being 4000 rpm), and 40 μL supernatant was transferred to another 96 well plate, to which was further added 360 μL deionized water containing […] internal reference (3-nitro-L-tyrosine). The plate was fully mixed, and then the sample was detected by RapidFire/MS system. The standards of L-tryptophan (Trp) and L-kynurenine (Kyn) were dissolved in water to obtain a concentration of 10 mM, and the standard curve was performed by three times dilution. The inhibitory ratio was calculated by obtained data, and the IC50 curve was completed by processing the resultant data with Graphpad Prism5 software.

Another data set in a line: Pharmacokinetics in mice. The settings on record: for Cmax: read-out: Blood concentration Cmax; for AUC: read-out: Curve area AUC; for Tmax: read-out: Peak time tmax; for MRT inf: read-out: Retention time MRTinf. The format is in vivo, ICR mice. An excerpt:
1) Experimental Materials and Apparatus: • LC-20AD HPLC system (SHIMADZU, Japan) • API4000 Triple quadrupole mass spectrometer (Applied Biosystem, USA) • PhenixWinnolin Pharmacokinetic software (Version 6.3, Certara, USA) • High speed freezing centrifuge (Thermo Fisher Scientific) • Analytical balance (SECURA225D-1CN) • Experimental animals: ICR mice (Chengdu Dashuo Experimental Animal Co., Ltd) • DMA (Sigma) • CMC-Na (Chengdu Kelong Chemical Co., Ltd) • Heparin (Chengdu Kelong Chemical Co., Ltd)
2) Experimental Methods and Results
A solution at concentration of 0.5 mg/mL was prepared. 0.2 ml of the final solution prepared was taken out and stored at −20° C. for concentration determination. Nine healthy adult ICR mice (20-30 g) were fasted overnight (free drinking water) and then administrated at a dosage of 0.2 mL/10 g by gavage. Prior to administration and 0.5, 1, 2, 4, 6, 8, 12, 24 h after administration, 0.1 mL blood was collected from the posterior orbital venous plexus and centrifuged at 4° C. for 5 min to separate the plasma, which was preserved at −20° C. for testing. Then the concentrations of tested compounds in the plasma were determined by LC/MS/MS.

[2] abbreviates: ICR, mouse, 10 mg/kg, PO, 10 mpk, plasma.

`NS(=O)(=O)N1CC(CNc2nonc2/C(=N/O)Nc2ccc(F)c(Br)c2)C1` [Compound 4, N-(3-Bromo-4-fluorophenyl)-N′-hydroxyl-4-(((1-sulfamoylazetidin-3-yl)methyl)amino)-1,2,5-oxadiazole-3-formamidine] came in with an IC50 on human IDO1 protease of 55 nM. The “inhibitory activities on IDO protease in HeLa cells (in words)” value in data set [1] was “excellent”. In data set [1] (HeLa cells, 25 ng/ml IFNγ, 48 hours), this molecule came in with an IC50 of 5 nM. Also, in “Pharmacokinetics in mice”, the “half-life time compared with the reference compound INCB-24360 (in words)” value is reported as “longer half-life time”. In the data set “Pharmacokinetics in mice” (setting [2]), the Cmax amounted to 1080 ng/mL, the AUC stood at 1760 ng·h/mL, the Tmax stood at 0.5 h and the MRT inf worked out at 3.28 h. The half-life in “Pharmacokinetics in mice” (ICR, mouse, 10 mg/kg, PO, 10 mpk, plasma, read-out: Half time t1/2 (converted)) was 5.06 h.
Consider `NS(=O)(=O)NCCNc1nonc1C(=NO)Nc1ccc(F)c(Br)c1` [INCB24360, reference compound], for which, in the data set “Pharmacokinetics in mice” (setting [2]), the Cmax is 992 ng/mL, the AUC turned out to be 1810 ng·h/mL, the Tmax worked out at 0.5 h and the MRT inf came to 2.03 h.
